Assay type in all cases: cell-based
The target in experiment [1] is T1, AtGTR2 (Arabidopsis thaliana, UniProt Q9LV10).
T1 construct: expressed in transfected cells; host or cells: Xenopus oocytes injected with in vitro transcribed cRNA (vector pNB1u)
T1 sequence (Q9LV10 1-616): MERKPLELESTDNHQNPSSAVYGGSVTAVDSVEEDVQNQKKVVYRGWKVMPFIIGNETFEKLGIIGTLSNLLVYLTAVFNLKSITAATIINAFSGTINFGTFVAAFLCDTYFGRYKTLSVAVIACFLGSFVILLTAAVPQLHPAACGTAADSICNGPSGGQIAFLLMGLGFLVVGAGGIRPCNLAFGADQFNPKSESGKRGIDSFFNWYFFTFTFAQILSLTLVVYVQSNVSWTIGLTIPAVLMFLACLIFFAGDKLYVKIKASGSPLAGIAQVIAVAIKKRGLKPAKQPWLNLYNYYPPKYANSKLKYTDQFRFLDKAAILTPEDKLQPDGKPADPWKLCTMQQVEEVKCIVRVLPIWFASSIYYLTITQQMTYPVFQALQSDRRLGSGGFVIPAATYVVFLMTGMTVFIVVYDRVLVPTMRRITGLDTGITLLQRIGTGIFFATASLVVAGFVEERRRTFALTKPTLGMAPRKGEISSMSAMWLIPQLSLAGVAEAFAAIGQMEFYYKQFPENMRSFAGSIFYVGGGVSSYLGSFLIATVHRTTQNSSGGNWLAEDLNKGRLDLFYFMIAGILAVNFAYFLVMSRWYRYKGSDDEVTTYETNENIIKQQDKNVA
The experiment in a line: Substrate-induced currents in voltage-clamped Xenopus oocytes expressing AtGTR2. How it is done: FIG. 3: Biochemical analysis of AtGTR1 and 2 mediated GSL transport in Xenopus oocytes. A and B, pH dependence of AtGTR-mediated GSL transport. A, AtGTR2 mediated 4-MTB uptake measured by LC-MS analysis of oocyte extracts, n=3 oocytes. B, AtGTR1 currents induced by 1 mM 4-MTB were measured at different membrane potentials at pH 5 ([…]), pH 6 (♦), and pH 7 (▴). Currents were normalized to the current induced at pH 5 at −60 mV, error bars are SD, n=4 oocytes. C and D, kinetic analysis of AtGTR-mediated glucosinolate transport. Normalized glucosinolate dependent currents at a membrane potential of −60 mV are plotted against 4-MTB concentrations, line indicates a fit of the Michaelis-Menten equation to the data; error bars are SD. For AtGTR1 (n=6 oocytes); For AtGTR2 (n=5 oocytes). Each oocyte-dataset were normalized to current elicited at 100 μM 4-MTB. E and F, substrate specificity of AtGTRs. E, AtGTR1 and AtGTR2 uptake of 0.04 mM C-14 labeled pOHBG at pH 5 in the presence of 2 mM 4-MTB, 2 mM NO3^−, 2 mM glucose+2 mM SO4^−−, or a solution of 2 mM Ala-His+2 mM Asp-Ala+2 mM Gly-Leu+2 mM Ala-Phe+2 mM Gly-Glu+2 mM Gly-Gly-Gly, error bars are SD, n=8 oocytes. F, AtGTR1 currents induced by endogenous and exogenous glucosinolates, representative positive, negative and neutral dipeptides and two tripeptides Currents were normalized to the current induced by 100 μM 4-MTB at pH 5 clamped at −60 mV, error bars are SD, n=4 oocytes.
When current recordings were performed on oocytes expressing, respectively, AtGTR1 and AtGTR2 exposed to 100 μM 4-MTB at pH 5 and voltage clamped at −50 mV elicited inward currents in the 30 nA range. This indicates a net influx of positive ions through the AtGTRs upon exposure to GSLs. GSL-induced inward currents were voltage dependent increasing with hyperpolarizing membrane potential within the range of +30 to −120 mV (FIGS. 3B and F). […] This observation was also noticeable in substrate dependent transport rates measured by direct LC-MS detection of GSL uptake.

The target of experiment [2] is T2, AtGTR1 (Arabidopsis thaliana, UniProt Q944G5).
T2 construct: A library of Arabidopsis transporters available as full length cDNAs from the RIKEN bioresource center; expressed in transfected cells; host or cells: Xenopus oocytes injected with in vitro transcribed cRNA
T2 sequence (Q944G5 31-636 limits assumed): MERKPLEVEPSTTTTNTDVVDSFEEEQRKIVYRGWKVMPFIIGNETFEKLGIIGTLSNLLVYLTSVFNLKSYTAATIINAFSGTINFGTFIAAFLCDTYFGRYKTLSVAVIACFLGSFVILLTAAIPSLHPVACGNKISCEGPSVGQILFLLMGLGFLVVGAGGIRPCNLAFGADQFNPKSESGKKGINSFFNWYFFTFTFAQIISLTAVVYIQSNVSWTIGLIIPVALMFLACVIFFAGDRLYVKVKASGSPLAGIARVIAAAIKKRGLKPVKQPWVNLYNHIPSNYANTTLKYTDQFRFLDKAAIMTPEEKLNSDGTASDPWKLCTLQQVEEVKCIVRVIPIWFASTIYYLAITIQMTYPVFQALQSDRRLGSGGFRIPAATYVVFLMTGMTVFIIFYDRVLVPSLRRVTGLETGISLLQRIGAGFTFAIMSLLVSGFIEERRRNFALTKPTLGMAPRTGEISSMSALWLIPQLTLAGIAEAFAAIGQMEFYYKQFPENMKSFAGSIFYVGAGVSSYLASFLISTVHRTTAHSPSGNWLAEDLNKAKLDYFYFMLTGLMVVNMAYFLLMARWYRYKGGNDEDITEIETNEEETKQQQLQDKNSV
As to the kind of experiment: Substrate-induced currents in voltage-clamped Xenopus oocytes expressing AtGTR1. Conditions: AtGTR1.

Experiment [3] addresses T1, AtGTR2. As to the kind of experiment: Glucosinolate uptake by AtGTR2 expressing oocytes, LC-MS analysis of oocyte extracts. Conditions: data not shown.

Molecules are shown by their SMILES.

Regarding `CSCCCC/C(=N/OS(=O)(=O)O)S[C@@H]1O[C@H](CO)[C@@H](O)[C@H](O)[C@H]1O` [4-MTB, 4-methylthiobutyl glucosinolate], the inward current in experiment [1] (100 μM substrate, pH 5, voltage clamped at −50 mV, AtGTR2) is listed as roughly 30 nA; in experiment [2] (100 μM substrate, pH 5, voltage clamped at −50 mV), roughly 30 nA. Besides, the “substrate dependent transport rate at 500 μM, lower than at 250 μM and 1 mM” value in experiment [1] (AtGTR2, 500 μM 4-MTB) was 25%. The Km came to 18.7 ± 4.2 µM in experiment [1] (pH 5, clamped at −60 mV, Michaelis-Menten, AtGTR2) and 20 ± 1.2 µM in experiment [2] (pH 5, clamped at −60 mV, Michaelis-Menten). For the same molecule, the “uptake by AtGTR2 measured by LC-MS analysis of oocyte extracts” value in experiment [3] is listed as “took up”.

Broadly, the Km is the substrate concentration at which the rate is half of its maximum.

Source of the values: patent US20140137294A1, “GLUCOSINOLATE TRANSPORTER PROTEIN AND USES THEREOF” (UNIVERSITY OF COPENHAGEN, priority 2010, published 2014).
